Where two headings read alike, the source gives them in different places.
Tests used:
Assay type in all cases: cell-based
PPAR-alpha = target: T1, PPAR-alpha (Homo sapiens, UniProt Q07869); experiment: human PPAR-GAL4 chimera luciferase reporter assay in CV-1 cells, PPAR-alpha
T1 construct: expressed in transfected cells; host or cells: CV-1 cells
T1 sequence (Q07869 239-466 limits assumed): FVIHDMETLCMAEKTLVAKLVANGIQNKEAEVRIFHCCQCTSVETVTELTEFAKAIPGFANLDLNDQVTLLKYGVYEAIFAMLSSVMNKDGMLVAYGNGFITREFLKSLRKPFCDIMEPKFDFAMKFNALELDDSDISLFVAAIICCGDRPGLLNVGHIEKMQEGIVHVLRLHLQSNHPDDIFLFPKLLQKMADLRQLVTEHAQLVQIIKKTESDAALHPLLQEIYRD
Procedure: (§1) The compounds were evaluated in a cell-based assay to determine their human PPAR activity. The plasmids for human PPAR-GAL4 chimeras were prepared by fusing amplified cDNAs encoding the LBDs of PPARs to the C-terminal end of the yeast GAL4 DNA binding domain. CV-1 cells were grown and transiently transected with PerFectin (GTS, San Diego, Calif.) according to the manufacturer's protocol along with a luciferase reporter. Eight hours after transfection, 50 μl of cells were replated into 384 well plates ([…]). Sixteen hours after replating, cells were treated with either compounds or 1% DMSO for 24 hours. Luciferase activity was then assayed with Britelite (Perkin Elmer) following the manufacturer's protocol and measured with either the Perkin Elmer Viewlux or Molecular Devices Acquest.
(§2) Compounds may be screened for functional potency in transient transfection assays in CV-1 cells for their ability to activate the PPAR subtypes (transactivation assay). A previously established chimeric receptor system was utilized to allow comparison of the relative transcriptional activity of the receptor subtypes on the same synthetic response element and to prevent endogenous receptor activation from complicating the interpretation of results. See, for example, Lehmann, J. M.; Moore, L. B.; Smith-Oliver, T. A; Wilkinson, W. O.; Willson, T. M.; Kliewer, S. A., An antidiabetic thiazolidinedione is a high affinity ligand for peroxisome proliferator-activated receptory γ (PPARγ), J. Biol. Chem., 1995, 270, 12953-6. The ligand binding domains for murine and human PPAR-alpha, PPAR-gamma, and PPAR-delta are each fused to the yeast transcription factor GAL4 DNA binding domain. CV-1 cells were transiently transfected with expression vectors for the respective PPAR chimera along with a reporter construct containing four or five copies of the GAL4 DNA binding site driving expression of luciferase. After 8-16 h, the cells are replated into multi-well assay plates and the media is exchanged to phenol-red free DME medium supplemented with 5% delipidated calf serum. 4 hours after replating, cells were treated with either compounds or 1% DMSO for 20-24 hours. Luciferase activity was then assayed with Britelite (Perkin Elmer) following the manufacturer's protocol and measured with either the Perkin Elmer Viewlux or Molecular Devices Acquest (see, for example, Kliewer, S. A., et. al. Cell 1995, 83, 813-819). Rosiglitazone is used as a positive control in the hPPAR-γ assay. Wy-14643 and GW7647 is used as a positive control in the hPPAR-α assay. GW501516 is used as the positive control in the hPPAR-δ assay.

PPAR-delta = target: T2, PPAR-delta (Homo sapiens, UniProt Q03181); experiment: human PPAR-GAL4 chimera luciferase reporter assay in CV-1 cells, PPAR-delta
T2 construct: expressed in transfected cells; host or cells: CV-1 cells
T2 sequence (Q03181 211-439 limits assumed): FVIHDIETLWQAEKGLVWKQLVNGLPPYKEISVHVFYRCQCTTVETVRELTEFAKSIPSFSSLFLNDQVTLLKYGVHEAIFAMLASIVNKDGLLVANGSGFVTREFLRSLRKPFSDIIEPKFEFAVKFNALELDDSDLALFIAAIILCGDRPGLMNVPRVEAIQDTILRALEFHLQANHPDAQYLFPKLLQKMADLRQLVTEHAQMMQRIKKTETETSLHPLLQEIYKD
Procedure: as §1, §2

PPAR-gamma = target: T3, PPAR-gamma (Homo sapiens, UniProt P37231); experiment: human PPAR-GAL4 chimera luciferase reporter assay in CV-1 cells, PPAR-gamma
T3 construct: expressed in transfected cells; host or cells: CV-1 cells
T3 sequence (P37231 238-503 limits assumed): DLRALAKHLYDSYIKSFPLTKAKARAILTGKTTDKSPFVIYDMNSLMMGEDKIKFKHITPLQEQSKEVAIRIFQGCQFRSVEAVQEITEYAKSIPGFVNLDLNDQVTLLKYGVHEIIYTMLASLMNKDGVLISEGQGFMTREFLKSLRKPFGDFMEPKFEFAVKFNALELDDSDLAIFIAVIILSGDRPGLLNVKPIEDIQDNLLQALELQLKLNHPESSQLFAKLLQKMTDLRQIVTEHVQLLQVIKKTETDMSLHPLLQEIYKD
Procedure: as §1, §2

[1] = Table 2, Examples 1-10, read-out: PPAR α EC50
[2] = Table 2, Examples 1-10, read-out: PPAR δ EC50
[3] = Table 2, Examples 1-10, read-out: PPAR γ EC50
[4] = Table 3, Examples 11-25, read-out: PPAR alpha (EC50)
[5] = Table 3, Examples 11-25, read-out: PPAR delta (EC50)
[6] = Table 3, Examples 11-25, read-out: PPAR gamma (EC50)

EC50 (PPAR-alpha; [1]) | EC50 (PPAR-delta; [2]) | EC50 (PPAR-gamma; [3]) | EC50 (PPAR-alpha; [4]) | EC50 (PPAR-delta; [5]) | EC50 (PPAR-gamma; [6]) | Structure (SMILES)
 |  |  | < 5 µM | < 5 µM | 5 to 100 µM | Cc1nc(-c2ccc(C(F)(F)F)cc2)sc1Cn1ccc2cc(OC(C)(C)C(=O)O)ccc21 [Example 15, 2-Methyl-2-{1-[4-methyl-2-(4-trifluoromethyl-phenyl)-thiazol-5-ylmethyl]-1H-indol-5-yloxy}-propionic acid]
 |  |  | 5 to 100 µM | < 5 µM | 5 to 100 µM | Cc1nc(-c2ccc(C(F)(F)F)cc2)sc1Cn1ccc2ccc(OC(C)(C)C(=O)O)cc21 [Example 16, 2-Methyl-2-{1-[4-methyl-2-(4-trifluoromethyl-phenyl)-thiazol-5-ylmethyl]-1H-indol-6-yloxy}-propionic acid]
 |  |  | 5 to 100 µM | 5 to 100 µM | 5 to 100 µM | Cc1nc(-c2ccc(C(F)(F)F)cc2)sc1CCN1CCc2cc(OCC(=O)O)ccc21 [Example 17, (1-{2-[4-Methyl-2-(4-trifluoromethyl-phenyl)-thiazol-5-yl]-ethyl}-2,3-dihydro-1H-indol-5-yloxy)-acetic acid]
 |  |  | 5 to 100 µM | 5 to 100 µM | 5 to 100 µM | Cc1nc(-c2ccc(C(F)(F)F)cc2)sc1CCn1ccc2cc(OCC(=O)O)ccc21 [Example 18, (1-{2-[4-Methyl-2-(4-trifluoromethyl-phenyl)-thiazol-5-yl]-ethyl}-1H-indol-5-yloxy)-acetic acid]
 |  |  | < 5 µM | < 5 µM | 5 to 100 µM | Cc1nc(-c2ccc(C(F)(F)F)cc2)sc1CCN1CCc2cc(OC(C)(C)C(=O)O)ccc21 [Example 19, 2-Methyl-2-(1-{2-[4-methyl-2-(4-trifluoromethyl-phenyl)-thiazol-5-yl]-ethyl}-2,3-dihydro-1H-indol-5-yloxy)-propionic acid]
 |  |  | < 5 µM | 5 to 100 µM | 5 to 100 µM | Cc1nc(-c2ccc(C(F)(F)F)cc2)sc1CCN1CCc2ccc(OC(C)(C)C(=O)O)cc21 [Example 20, 2-Methyl-2-(1-{2-[4-methyl-2-(4-trifluoromethyl-phenyl)-thiazol-5-yl]-ethyl}-2,3-dihydro-1H-indol-6-yloxy)-propionic acid]
 |  |  | 5 to 100 µM | 5 to 100 µM | 5 to 100 µM | Cc1nc(-c2ccc(C(F)(F)F)cc2)sc1CCn1ccc2cc(OC(C)(C)C(=O)O)ccc21 [Example 21, 2-Methyl-2-(1-{2-[4-methyl-2-(4-trifluoromethyl-phenyl)-thiazol-5-yl]-ethyl}-1H-indol-5-yloxy)-propionic acid]
 |  |  | 5 to 100 µM | 5 to 100 µM | 5 to 100 µM | Cc1nc(-c2ccc(C(F)(F)F)cc2)sc1CCn1ccc2ccc(OCC(=O)O)cc21 [Example 22, (1-{2-[4-Methyl-2-(4-trifluoromethyl-phenyl)-thiazol-5-yl]-ethyl}-1H-indol-6-yloxy)-acetic acid]

Further lines, the compound ahead of its results:

Structure (SMILES) | EC50 (PPAR-alpha; [1]) | EC50 (PPAR-delta; [2]) | EC50 (PPAR-gamma; [3]) | EC50 (PPAR-alpha; [4]) | EC50 (PPAR-delta; [5]) | EC50 (PPAR-gamma; [6])
Cc1nc(-c2ccc(C(F)(F)F)cc2)sc1COc1cccc(CC(=O)O)c1 [Example 1, {3-[4-methyl-2-(4-trifluoromethyl-phenyl)-thiazol-5-ylmethoxy]-phenyl}-acetic acid] | < 1 µM | < 1 µM | 1 to 10 µM |  |  | 
Cc1nc(-c2ccc(C(F)(F)F)cc2)sc1CSc1cccc(CC(=O)O)c1 [Example 2, {3-[4-methyl-2-(4-trifluoromethyl-phenyl)-thiazol-5-ylmethylsulfanyl]-phenyl}-acetic acid] | < 1 µM | < 1 µM | 1 to 10 µM |  |  | 
Cc1nc(-c2ccc(C(F)(F)F)cc2)sc1COc1ccc2c(ccn2CC(=O)O)c1 [Example 3, {5-[4-methyl-2-(4-trifluoromethyl-phenyl)-thiazol-5-ylmethoxy]-indol-1-yl}-acetic acid] | > 10 µM | > 10 µM | > 10 µM |  |  | 
Cc1nc(-c2ccc(C(F)(F)F)cc2)sc1COc1cccc2c1ccn2CC(=O)O [Example 4, {4-[4-methyl-2-(4-trifluoromethyl-phenyl)-thiazol-5-ylmethoxy]-indol-1-yl}-acetic acid] | > 10 µM | < 1 µM | 1 to 10 µM |  |  | 
Cc1nc(-c2ccc(C(F)(F)F)cc2)sc1COc1ccc2ccn(CC(=O)O)c2c1 [Example 5, {6-[4-methyl-2-(4-trifluoromethyl-phenyl)-thiazol-5-ylmethoxy]-indol-1-yl}-acetic acid] | > 10 µM | < 1 µM | 1 to 10 µM |  |  | 
Cc1nc(-c2ccc(C(F)(F)F)cc2)sc1COc1cccc2ccn(CC(=O)O)c12 [Example 6, {7-[4-methyl-2-(4-trifluoromethyl-phenyl)-thiazol-5-ylmethoxy]-indol-1-yl}-acetic acid] | > 10 µM | > 10 µM | > 10 µM |  |  | 
Cc1nc(-c2ccc(C(F)(F)F)cc2)sc1COc1ccc2[nH]cc(CC(=O)O)c2c1 [Example 7, {5-[4-Methyl-2-(4-trifluoromethyl-phenyl)-thiazol-5-ylmethoxy]-1H-indol-3-yl}-acetic acid] | > 10 µM | < 1 µM | < 1 µM |  |  | 
Cc1nc(-c2ccc(C(F)(F)F)cc2)sc1Cn1cc(C(=O)O)c2ccccc21 [Example 8] | > 10 µM | > 10 µM | > 10 µM |  |  | 
Cc1nc(-c2ccc(C(F)(F)F)cc2)sc1Cn1ccc2c(C(=O)O)cccc21 [Example 9, 1-[4-methyl-2-(4-trifluoromethyl-phenyl)-thiazol-5-ylmethyl]-1H-indole-4-carboxylic acid] | > 10 µM | > 10 µM | > 10 µM |  |  | 
Cc1nc(-c2ccc(C(F)(F)F)cc2)sc1Cn1ccc2cc(C(=O)O)ccc21 [Example 10, 1-[4-methyl-2-(4-trifluoromethyl-phenyl)-thiazol-5-ylmethyl]-1H-indole-5-carboxylic acid] | > 10 µM | > 10 µM | > 10 µM |  |  | 
Cc1nc(-c2ccc(C(F)(F)F)cc2)sc1Cn1ccc2c(OCC(=O)O)cccc21 [Example 11, {1-[4-Methyl-2-(4-trifluoromethyl-phenyl)-thiazol-5-ylmethyl]-1H-indol-4-yloxy}acetic acid] |  |  |  | > 100 µM | > 100 µM | > 100 µM
Cc1nc(-c2ccc(C(F)(F)F)cc2)sc1Cn1ccc2cc(OCC(=O)O)ccc21 [Example 12, {1-[4-Methyl-2-(4-trifluoromethyl-phenyl)-thiazol-5-ylmethyl]-1H-indol-5-yloxy}-acetic acid] |  |  |  | 5 to 100 µM | 5 to 100 µM | 5 to 100 µM
Cc1nc(-c2ccc(C(F)(F)F)cc2)sc1Cn1ccc2ccc(OCC(=O)O)cc21 [Example 13, {1-[4-Methyl-2-(4-trifluoromethyl-phenyl)-thiazol-5-ylmethyl]-1H-indol-6-yloxy}-acetic acid] |  |  |  | 5 to 100 µM | < 5 µM | 5 to 100 µM
Cc1nc(-c2ccc(C(F)(F)F)cc2)sc1Cn1ccc2cccc(OCC(=O)O)c21 [Example 14, {1-[4-Methyl-2-(4-trifluoromethyl-phenyl)-thiazol-5-ylmethyl]-1H-indol-7-yloxy}-acetic acid] |  |  |  | > 100 µM | 5 to 100 µM | 5 to 100 µM
